The conditions of data set [1]: dilute aqueous solution exposed to oxygen; cited from earlier work.
The subject of a further data set is control lambs. In words: Inhaled NO in control lambs with no drug infusion. It is filed as in vivo, Suffolk lambs. The following applies: 80 ppm NO, FiO2 0.6-0.7, two lambs. The text has this: Eight Suffolk lambs weighing 25-35 kg underwent a sterile thoracotomy in order to place a left atrial line, tracheostomy and femoral artery line under general endotracheal anesthesia with halothane/oxygen three days before study. After three days of recovery the lambs underwent sterile placement of a 7 French thermal dilution pulmonary artery monitoring catheter under local anesthesia.
Awake unanesthetized lambs were studied in order to avoid general anesthesia which can blunt hypoxic vasoconstriction. Lambs were placed in a Babraham cage and allowed to drink and eat ad lib. Two studies were performed 2 days apart on each of six lambs. After the study the lambs were sacrificed with an overdose of barbiturate and heir lungs were fixed, stained and examined by light microscopy for pathological changes.
A pulmonary vasodilator dose response curve plotting changes in PAP as a function of inhaled NO concentration during U46619 infusion was produced for eight lambs breathing a series of increasing NO/O2 mixtures of 5, 10, 20, 40, and 80 ppm NO for six minutes (FIG. 1). Each level of NO exposure was followed by six minutes of breathing the oxygen mixture without NO (FIG. 2). A second exposure to NO was examined for similar periods. Subsequently, a control period breathing the oxygen mixture was studied six minutes after ceasing U46619 infusion. At each three and six minute time period after administering or discontinuing NO during the study, we measured mean and phasic pulmonary artery pressure (PAP), left atrial pressure (LAP), systemic arterial pressure (SAP) and central venous pressure (CVP). All pressures were recorded on a Hewlett Packard multi-channel strip chart recorder with transducers zeroed to atmospheric pressure at the mid point of the thorax (e.g., see FIG. 3). Cardiac output (CO) was measured by thermal dilution as the average of two determinations injecting 5 ml of 0° C. Ringers lactate. Pulmonary vascular resistance (PVR) and systemic vascular resistance (SVR) were computed by standard formulae; PVR measured at each inhaled NO concentration is shown in FIG. 4. Appropriate statistical analyses were performed, and all data were expressed as mean ± standard error.
Two control lambs with no drug infusion breathed 80 ppm NO at an F1 O2 of 0.6-0.7. There was no change of mean PAP, SAP, CO or SVR in these lambs.

The test system of data set [2] is acute hypoxic pulmonary hypertension. The data set can be described thus: Inhaled NO in lambs with pulmonary vasoconstriction induced by hypoxia. It is filed as in vivo. The procedure: Five awake lambs were studied during a period of breathing a hypoxic gas mixture to induce acute hypoxic pulmonary hypertension. Three lambs were excluded due to sepsis and heart failure. Hemodynamic monitoring techniques similar to those described above were used. We employed a non-rebreathing circuit containing a 25 liter reservoir bag and the Fi O2 was reduced to 0.06-0.08 to produce a mean PAP near 25 mm Hg at a Pa O2 near 30 mm Hg. Either 40 or 80 ppm NO was then added to the inspired gas mixture. Total gas flows were maintained at 35 l/min to prevent rebreathing due to hyperventilation. The inspired Fi O2 was monitored with n electrode (model 5590, Hudson Co., Temecala, Calif.) and pure CO2 was added to the inspired gas to maintain the end tidal CO2 concentration at 4.5-6%. Measurements of central hemodynamics and gas exchange were obtained at baseline, during hypoxia, and at 3 and 6 minutes of No breathing during hypoxia. Comparisons were performed using paired t-tests.

In data set [3] the test system is severe acute respiratory failure. In words: Inhaled NO in humans with severe acute respiratory failure (preliminary). Particulars: approximately 20 ppm inhaled, up to one month, five humans. It is filed as in vivo, human. From the text:
It is likely that inhaled NO acts by diffusing into the vascular space adjacent to the alveoli and causing relaxation of pulmonary vascular smooth muscle, thus permitting an increase in pulmonary blood flow and gas exchange. […] By localizing delivery of NO in a gaseous form directly to the lungs, the dissolved NO can immediately exert its pharmacological effect on target vascular smooth muscle, prior to inactivation of the NO by binding to hemoglobin. At the same time, the rapid binding of NO to hemoglobin ensures that any vasodilatory action of inhaled NO is solely a local or selective effect in the blood vessels of the lung, with no concomitant vasodilation downstream in the systemic circulation.

The next data set concerns lungs. The data set can be described thus: Light microscopy of lungs for morphological changes caused by breathing NO. It is filed as in vivo. The following applies: 80 ppm NO for 180 min, three lambs vs control lungs. The procedure:
Lungs from three lambs which had breathed 80 ppm NO for 180 min were studied by light microscopy for evidence of morphological changes caused by breathing NO.

The mark [4] stands for this setting: hypoxia + 40-80 ppm NO, FiO2 0.06-0.08, n = 5, mean ± S.E.
Setting [5] is: hypoxia + 40-80 ppm NO, n = 5, mean ± S.E.
[6] abbreviates: hypoxia + 40-80 ppm NO, n = 5, mean ± S.E., p < .01 vs hypoxia.

The structures appear in SMILES notation.

The source of these data is patent US5873359A, “Methods and devices for treating pulmonary vasoconstriction and asthma” (The General Hospital Corporation, priority 1994, dated 1999).

As to `[N]=O` [NO, nitric oxide], in data set [1], the half life result is on record as “less than 10 seconds”. In the data set on control lambs, the CO entry is given as “no change”, the SAP entry is “no change”, the SVR entry is reported as “no change” and the “mean PAP” value is given as “no change”. Further, in data set [2] (40 or 80 ppm NO), the “Pa O2 during hypoxia with vs without NO” value is listed as “similar”, the “Pv O2 during hypoxia with vs without NO” value is “similar”, the “drop of mean PVR” value was found to be 33% and the pulmonary artery pressure result is reported as “returned to control levels”. In data set [2] (setting [4]), the “Pa CO2” value was 40.0 ± 2.7 mm Hg, the “PaO2” value is listed as 31.1 ± 1.7 mm Hg, the “Pv O2” value is recorded as 19.8 ± 3.2 mm Hg and the pHa is 7.40 ± 0.03. In data set [2] (setting [5]), the CO was found to be 7.56 ± 0.79 L/min, the CVP is on record as 2.8 ± 1.6 mm Hg, the LAP is 4.2 ± 1.0 mm Hg and the SVR is 13.7 ± 1.0 mm Hg/l/min. Also, in data set [2] (setting [6]), the PAP came out at 18.7 ± 1.1 mm Hg, the PVR came out at 2.01 ± 0.35 mm Hg/l/min and the SAP is 106 ± 5 mm Hg. In data set [3], the “QVA /QT (right-to-left shunt)” value is “reduces both pulmonary arterial pressure and QVA /QT”; the blood oxygen levels result is “marked increase of the patients' blood oxygen levels”; the pulmonary arterial pressure result is “reduces both pulmonary arterial pressure and QVA /QT”. Besides, the “morphological changes of lungs” value in the data set with lungs is “No significant differences”.
